Patent US7105534B2, “Imidazo[1,2-α]pyridine ether compounds as ion channel modulators” (Cardiome Pharma Corp., priority 2000, dated 2006)
Structures can show the parent of a compound that is named as a salt.

Key:
HERG = target: T1, HERG (Homo sapiens, UniProt Q12809); experiment: Patch-clamp inhibition of cloned ion channel current in transfected HEK cells: HERG; type: cell-based; conditions: whole-cell patch clamp
T1 construct: expressed in transfected cells; host or cells: HEK cells, transient transfection, vector pCDNA3
T1 sequence (Q12809 whole entry): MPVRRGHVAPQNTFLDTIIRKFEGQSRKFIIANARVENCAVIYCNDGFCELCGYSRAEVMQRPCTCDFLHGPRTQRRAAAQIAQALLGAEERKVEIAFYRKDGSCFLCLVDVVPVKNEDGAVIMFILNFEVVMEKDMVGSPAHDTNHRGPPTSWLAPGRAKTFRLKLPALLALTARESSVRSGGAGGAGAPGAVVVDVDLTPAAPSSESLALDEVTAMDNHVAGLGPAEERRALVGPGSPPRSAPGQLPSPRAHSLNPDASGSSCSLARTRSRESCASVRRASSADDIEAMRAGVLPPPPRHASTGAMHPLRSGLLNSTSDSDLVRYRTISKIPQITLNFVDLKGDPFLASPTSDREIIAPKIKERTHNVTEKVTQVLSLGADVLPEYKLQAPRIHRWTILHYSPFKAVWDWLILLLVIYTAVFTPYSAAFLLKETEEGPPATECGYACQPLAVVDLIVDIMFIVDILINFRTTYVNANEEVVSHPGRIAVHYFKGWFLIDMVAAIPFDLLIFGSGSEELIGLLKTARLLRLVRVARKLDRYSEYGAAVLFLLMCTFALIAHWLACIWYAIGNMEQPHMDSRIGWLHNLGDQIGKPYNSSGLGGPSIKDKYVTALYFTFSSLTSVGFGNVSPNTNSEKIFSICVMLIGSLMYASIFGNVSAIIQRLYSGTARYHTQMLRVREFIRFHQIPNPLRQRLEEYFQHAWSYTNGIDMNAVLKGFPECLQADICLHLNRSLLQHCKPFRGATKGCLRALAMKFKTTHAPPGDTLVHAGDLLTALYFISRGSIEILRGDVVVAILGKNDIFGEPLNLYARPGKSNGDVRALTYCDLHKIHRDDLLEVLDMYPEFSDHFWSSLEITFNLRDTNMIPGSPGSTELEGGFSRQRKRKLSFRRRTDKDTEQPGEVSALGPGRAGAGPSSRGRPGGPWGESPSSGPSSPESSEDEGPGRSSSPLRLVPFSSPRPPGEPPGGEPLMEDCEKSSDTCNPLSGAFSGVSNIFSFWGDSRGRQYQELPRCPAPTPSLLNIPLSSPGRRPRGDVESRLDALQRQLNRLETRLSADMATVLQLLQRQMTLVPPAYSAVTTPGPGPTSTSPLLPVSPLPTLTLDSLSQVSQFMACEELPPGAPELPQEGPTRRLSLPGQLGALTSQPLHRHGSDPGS
Description: (§1) The relevant cloned ion channels (e.g. cardiac hH1, Kv1.4, Kv1.5, Kv4.2, Kv2.1, HERG etc.) are studied by transient transfection into HEK cells using the mammalian expression vector pCDNA3. Transfections for each channel type are carried out separately to allow individual study of the ion channel of interest. Cells expressing channel protein are detected by cotransfecting cells with the vector pHook-1 (Invitrogen, San Diego, Calif., USA). […] Equal concentrations of individual channel and pHook DNA are incubated with 10× concentration of lipofectAce in Modified Eagle's Medium (MEM, Canadian Life Technologies) and incubated with parent HEK cells plated on 25 mm culture dishes. After 3–4 hours the solution is replaced with a standard culture medium plus 20% fetal bovine serum and 1% antimycotic. Transfected cells are maintained at 37C in an air/5% CO2 incubator in 25 mm Petri dishes plated on glass coverslips for 24–48 hours to allow channel expression to occur. 20 min prior to experiments, cells are treated with beads coated with phOX. After 15 min, excess beads are […] off with cell culture medium and cells which had beads stuck to them are used for electrophysiological tests.
(§2) For whole-cell recording the control pipette filling solution contained (in mM): KCl, 130; EGTA, 5; MgCl2, 1; HEPES, 10; Na2ATP, 4; GTP, 0.1; and is adjusted to pH 7.2 with KOH. The control bath solution contained (in mM): NaCl, 135; KCI, 5; sodium acetate, 2.8; MgCl2, 1; HEPES, 10; CaCl2, 1; and is adjusted to pH 7.4 with NaOH. The test ion channel modulating compound is dissolved to 10 mM stock solutions in water and used at concentrations between 0.5 and 100 μM.
(§3) Coverslips containing cells are removed from the incubator before experiments and placed in a superfusion chamber (volume 250 μl) containing the control bath solution at 22C to 23C. All recordings are made via the variations of the patch-clamp technique, using an Axopatch 200A amplifier (Axon Instruments, CA). Patch electrodes are pulled from thin-walled borosilicate glass (World Precision Instruments; FL) on a horizontal micropipette puller, fire-polished, and filled with appropriate solutions. Electrodes had resistances of […] when filled with control filling solution. Analog capacity compensation is used in all whole cell measurements. In some experiments, leak subtraction is applied to data. Membrane potentials have not been corrected for any junctional potentials that arose between the pipette and bath solution. Data are filtered at 5 to 10 kHz before digitization and stored on a microcomputer for later analysis using the pClamp6 software (Axon Instruments, Foster City, Calif.). Due to the high level of expression of channel cDNA's in HEK cells, there is no need for signal averaging. The average cell capacitance is quite small, and the absence of ionic current at negative membrane potentials allowed faithful leak subtraction of data.
(§4) The concentration-response curves for changes in peak and steady-state current produced by the test compound are computer-fitted to the Hill equation: f=1−1/[1+([…])^n] [1]
(§5) where f is the fractional current (f=Idrug/Icontrol) at drug concentration [D]; IC50 is the concentration producing half-maximal inhibition and n is the Hill coefficient.
(§6) Compounds of the present invention may be evaluated by this method. […] Block is determined from the decrease in peak hH1 Na^+ current, or in steady-state Kv1.5 and integrated Kv4.2 current in the presence of drug. To record Na^+ current, cells are depolarized from the holding potential of −100 mV to a voltage of −30 mV for 10 ms to fully open and inactivate the channel. To record Kv1.5 and Kv4.2 current, cells are depolarized from the holding potential of −80 mV to a voltage of +60 mV for 200 ms to fully open the channel. Currents are recorded in the steady-state at a range of drug concentrations during stimulation every 4 s. […]

hH1 Na+ current = target: T2, hH1 Na+ current (Homo sapiens, UniProt Q14524); experiment: Patch-clamp inhibition of cloned ion channel current in transfected HEK cells: Na; type: cell-based; conditions: peak hH1 Na+ current, -100 mV to -30 mV
T2 construct: expressed in transfected cells; host or cells: HEK cells, transient transfection, vector pCDNA3
T2 sequence (Q14524 whole entry): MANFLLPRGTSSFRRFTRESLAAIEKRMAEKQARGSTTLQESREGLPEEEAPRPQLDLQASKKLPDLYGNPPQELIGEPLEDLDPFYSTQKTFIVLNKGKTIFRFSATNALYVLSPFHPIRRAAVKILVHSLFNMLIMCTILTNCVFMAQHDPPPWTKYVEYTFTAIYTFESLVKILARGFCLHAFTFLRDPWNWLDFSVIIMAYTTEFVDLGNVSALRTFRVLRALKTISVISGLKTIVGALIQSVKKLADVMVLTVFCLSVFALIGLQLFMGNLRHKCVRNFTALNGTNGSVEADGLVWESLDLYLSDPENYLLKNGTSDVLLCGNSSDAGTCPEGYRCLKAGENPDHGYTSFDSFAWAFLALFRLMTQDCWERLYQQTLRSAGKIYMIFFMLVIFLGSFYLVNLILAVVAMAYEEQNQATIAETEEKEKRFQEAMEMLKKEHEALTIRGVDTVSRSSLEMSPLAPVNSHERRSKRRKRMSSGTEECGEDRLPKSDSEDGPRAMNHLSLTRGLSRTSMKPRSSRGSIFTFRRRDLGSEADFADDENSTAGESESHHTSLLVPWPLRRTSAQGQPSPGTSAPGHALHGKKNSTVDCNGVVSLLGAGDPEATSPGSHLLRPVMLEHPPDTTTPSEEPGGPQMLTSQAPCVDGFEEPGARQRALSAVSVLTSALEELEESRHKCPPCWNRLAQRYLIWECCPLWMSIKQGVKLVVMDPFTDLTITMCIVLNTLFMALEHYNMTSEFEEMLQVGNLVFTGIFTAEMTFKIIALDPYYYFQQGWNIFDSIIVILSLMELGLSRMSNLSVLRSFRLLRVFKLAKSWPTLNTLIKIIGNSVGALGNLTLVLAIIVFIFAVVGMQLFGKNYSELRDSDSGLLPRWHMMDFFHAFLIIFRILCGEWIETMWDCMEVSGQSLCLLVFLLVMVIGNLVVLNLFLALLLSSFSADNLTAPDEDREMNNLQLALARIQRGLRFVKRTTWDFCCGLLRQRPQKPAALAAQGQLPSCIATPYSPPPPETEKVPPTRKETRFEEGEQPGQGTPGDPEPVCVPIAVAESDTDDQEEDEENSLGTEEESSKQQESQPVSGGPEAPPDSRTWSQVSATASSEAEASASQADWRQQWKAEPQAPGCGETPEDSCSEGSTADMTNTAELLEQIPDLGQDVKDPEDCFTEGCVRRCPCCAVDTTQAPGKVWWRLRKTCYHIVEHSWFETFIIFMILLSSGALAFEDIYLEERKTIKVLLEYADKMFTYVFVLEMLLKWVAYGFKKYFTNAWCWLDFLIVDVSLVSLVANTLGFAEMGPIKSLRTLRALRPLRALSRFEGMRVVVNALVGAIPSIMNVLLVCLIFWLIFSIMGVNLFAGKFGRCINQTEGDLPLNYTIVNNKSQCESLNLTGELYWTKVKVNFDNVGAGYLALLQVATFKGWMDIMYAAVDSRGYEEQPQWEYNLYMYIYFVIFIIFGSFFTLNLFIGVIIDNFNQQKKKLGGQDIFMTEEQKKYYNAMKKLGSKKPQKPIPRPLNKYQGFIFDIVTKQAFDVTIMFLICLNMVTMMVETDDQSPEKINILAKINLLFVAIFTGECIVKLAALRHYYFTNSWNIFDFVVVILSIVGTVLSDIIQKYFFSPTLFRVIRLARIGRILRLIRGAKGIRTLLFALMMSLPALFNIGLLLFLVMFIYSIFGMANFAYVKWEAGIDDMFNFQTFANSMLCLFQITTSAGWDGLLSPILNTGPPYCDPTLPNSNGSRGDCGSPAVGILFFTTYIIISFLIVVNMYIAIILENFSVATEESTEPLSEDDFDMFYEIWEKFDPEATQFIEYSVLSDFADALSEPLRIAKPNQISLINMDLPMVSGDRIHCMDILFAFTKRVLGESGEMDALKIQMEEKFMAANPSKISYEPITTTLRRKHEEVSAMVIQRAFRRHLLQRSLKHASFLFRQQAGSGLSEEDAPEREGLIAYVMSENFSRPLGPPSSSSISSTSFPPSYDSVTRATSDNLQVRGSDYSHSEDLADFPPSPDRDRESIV
Description: as §1, §2, §3, §4, §5, §6

CD-1 mice = experiment: Assessment of pain blockage: pin prick, mouse tail; type: in vivo; conditions: injection into lateral tail vein with tourniquet
Description: CD-1 mice (20–30 g) are restrained in an appropriate holder. A tourniquet is placed at the base of the tail and a solution of the test compound (50 μl, 5 mg/ml) is injected into the lateral tail vein. The tourniquet is removed 10 min after the injection. Suitable dilutions of compound solution are used to obtain an ED50 for pain blockade at various times after injection. Pain responses are assessed by pin prick at regular intervals up to 4 hours post injection and the duration of pain blockage is recorded for three animals for each test compound solution. Compounds of the present invention may be evaluated according to the method described.

Kv4.2 = target: T3, Kv4.2 (Homo sapiens, UniProt Q9NZV8); experiment: Patch-clamp inhibition of cloned ion channel current in transfected HEK cells: Kv4.2; type: cell-based; conditions: integrated current, -80 mV to +60 mV
T3 construct: expressed in transfected cells; host or cells: HEK cells, transient transfection, vector pCDNA3
T3 sequence (Q9NZV8 1-630): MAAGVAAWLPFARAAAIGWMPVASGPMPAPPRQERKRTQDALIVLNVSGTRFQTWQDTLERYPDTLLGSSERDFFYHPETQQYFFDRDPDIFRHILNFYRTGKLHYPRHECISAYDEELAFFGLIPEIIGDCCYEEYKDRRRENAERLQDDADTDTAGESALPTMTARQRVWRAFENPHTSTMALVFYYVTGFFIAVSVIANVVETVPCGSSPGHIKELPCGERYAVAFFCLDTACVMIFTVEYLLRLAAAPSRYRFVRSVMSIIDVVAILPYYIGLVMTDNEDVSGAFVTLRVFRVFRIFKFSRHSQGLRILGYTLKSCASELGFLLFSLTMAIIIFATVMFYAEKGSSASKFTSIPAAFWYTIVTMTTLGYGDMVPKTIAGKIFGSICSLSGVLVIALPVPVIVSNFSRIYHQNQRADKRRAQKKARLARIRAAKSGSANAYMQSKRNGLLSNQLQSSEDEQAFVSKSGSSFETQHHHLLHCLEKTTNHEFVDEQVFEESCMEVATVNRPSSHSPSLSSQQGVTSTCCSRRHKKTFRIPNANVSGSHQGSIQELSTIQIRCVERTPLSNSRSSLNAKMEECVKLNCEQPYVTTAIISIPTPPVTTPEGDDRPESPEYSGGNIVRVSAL
Description: as §1, §2, §3, §4, §5, §6

Kv1.5 = target: T4, Kv1.5 (Homo sapiens, UniProt P22460); experiment: Patch-clamp inhibition of cloned ion channel current in transfected HEK cells: Kv1.5; type: cell-based; conditions: steady-state current, -80 mV to +60 mV
T4 construct: expressed in transfected cells; host or cells: HEK cells, transient transfection, vector pCDNA3
T4 sequence (P22460 whole entry): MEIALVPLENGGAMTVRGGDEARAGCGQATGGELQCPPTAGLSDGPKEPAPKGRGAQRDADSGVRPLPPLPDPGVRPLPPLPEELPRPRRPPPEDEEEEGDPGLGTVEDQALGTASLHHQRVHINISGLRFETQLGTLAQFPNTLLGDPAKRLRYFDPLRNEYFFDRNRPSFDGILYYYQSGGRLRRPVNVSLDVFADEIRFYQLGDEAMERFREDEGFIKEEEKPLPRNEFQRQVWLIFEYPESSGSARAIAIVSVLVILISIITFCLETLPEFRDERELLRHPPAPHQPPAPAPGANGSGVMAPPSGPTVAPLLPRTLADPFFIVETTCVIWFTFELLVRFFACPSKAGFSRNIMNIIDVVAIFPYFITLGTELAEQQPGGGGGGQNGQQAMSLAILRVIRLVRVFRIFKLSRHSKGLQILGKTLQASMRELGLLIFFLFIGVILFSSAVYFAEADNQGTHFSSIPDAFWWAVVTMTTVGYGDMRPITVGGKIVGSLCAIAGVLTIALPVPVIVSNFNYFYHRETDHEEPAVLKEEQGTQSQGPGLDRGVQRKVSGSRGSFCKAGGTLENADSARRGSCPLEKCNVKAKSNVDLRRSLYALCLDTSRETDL
Description: as §1, §2, §3, §4, §5, §6

Sprague Dawley rats = experiment: Cardiovascular and behavioral effects: ECG changes during i.v. infusion in conscious rats; type: in vivo, rat; conditions: for D25 QT (dose required to produce a 25% increase in Q-T interval): indicates cardiac potassium channel blockade
Description: Preparative surgery is performed in Sprague Dawley rats weighing 200–300 gm and anaesthetized with 65 mg/kg (i.p.) pentobarbital. The femoral artery and vein are cannulated using polyethylene (PE)-10 tubing. Prior to surgery, this PE-10 tubing had been annealed to a wider gauge (PE-50) tubing for externalization. The cannulated PE-10/PE-50 tubing is passed through a trocar and exteriorised together with three (lead II) limb ECG leads (see below). The trocar is threaded under the skin of the back and out through a small incision at the mid-scapular region. A ground ECG electrode is inserted subcutaneously using a 20 gauge needle with the lead wire threaded through it. To place the other ECG electrodes, a small incision is made in the anterior chest region over the heart and ECG leads are inserted into the subcutaneous muscle layer in the region of the heart using a 20 guage needle. Other ECG leads are inserted into the subcutaneous muscle layer in the region near the base of the neck and shoulder (right side). The animal is returned to a clean recovery-cage with free access to food and water. The treatment and observational period for each animal commenced after a 24-hour recovery period.
A 15 min observational period is recorded followed by the intravenous infusion regime of the test compound at an initial dose of 2.0 μmol/kg/min (at 1 ml/hr). This rate is doubled every 5 minutes until one of the following effects is observed:
Blood pressure (BP), heart rate (HR) and ECG variables are continuously recorded while behavioral responses are also monitored and the total accumulative drug dose and drug infusion rate at which the response (such as convulsion, piloerection, ataxia, restlessness, compulsive chewing, lip-smacking, wet dog shake etc.) occurred are recorded.
Electrocardiograph (ECG) parameters: PR, QRS, QT1 (peak of T-wave), QT2 (midpoint of T-wave deflection) and hemodynamic parameters: BP and HR are analyzed using the automated analysis function in LabView (National Instruments) with a customized autoanalysis software (Nortran Pharmaceuticals). The infused dose producing 25% from control (D25) for all recorded ECG variables is determined.
Table 2 describes the results of the tests as D25 (micromol/kg) which are the doses required to produce a 25% increase in the ECG parameter measured (ne=not estimated). The increases in P-R interval and QRS interval indicate cardiac sodium channel blockade while the increase in Q-T interval indicates cardiac potassium channel blockade.

Mongrel dogs = experiment: Canine vagal-AF model: termination of sustained atrial fibrillation; type: in vivo, dog; conditions: IV
Description: Mongrel dogs of either sex weighing 15-49 kg are anesthetized with morphine (2 mg/kg im initially, followed by 0.5 mg/kg IV every 2 h) and α-chloralose (120 mg/kg IV followed by an infusion of 29.25 mg/kg/h; St.-Georges et al., 1997). Dogs are ventilated mechanically with room air supplemented with oxygen via an endotracheal tube at 20 to 25 breaths/minute with a tidal volume obtained from a nomogram. […] Catheters are inserted into the femoral artery for blood pressure recording and blood gas measurement, and into both femoral veins for drug administration and venous sampling. Catheters are kept patent with heparinized 0.9% saline solution. Body temperature is maintained at 37-40° C. with a heating blanket. […] Drug effects to terminate sustained AF maintained during continuous vagal nerve stimulation are assessed. […] The vagal stimulation voltage is adjusted under control conditions, and then readjusted after each treatment to maintain the same bradycardic effect. […] Diastolic threshold current is determined at a basic cycle length of 300 ms by increasing the current 0.1 mA incrementally until stable capture is obtained. […] Atrial and ventricular ERP is measured with the extrastimulus method, over a range of S1S2 intervals at a basic cycle length of 300 ms. […] Diastolic threshold and ERP are determined in duplicate and averaged to give a single value. […]

[1] = indicates cardiac sodium channel blockade

melting point	IC50 (hH1 Na+ current)	IC50 (Kv4.2)	IC50 (Kv1.5)	Compound	IC50 (HERG)	ED50 for pain blockade (CD-1 mice)	D25 QT (dose required to produce a 25% increase in Q-T interval) (Sprague Dawley rats)	D25 PR (dose required to produce a 25% increase in P-R interval) (Sprague Dawley rats; [1])	D25 QRS (dose required to produce a 25% increase in QRS interval) (Sprague Dawley rats; [1])	Median dose required for termination of AF (Mongrel dogs)	Mean dose required for termination of AF (Mongrel dogs; mean ±SEM)
< 193 °C				Cc1cn2cccc(OCCCc3ccc(Cl)cc3Cl)c2n1 (as salt: hydrochloride) [Compound 1, 8-[3-(2,4-DICHLOROPHENYL)PROPOXY]-2-METHYLIMIDAZO[1,2-α]PYRIDINEMONOHYDROCHLORIDE]							
	8 µM	2 µM	0.3 µM	Cc1cn2cccc(OCCCc3ccc(Cl)cc3Cl)c2n1 [Compound 1, 8-[3-(2,4-DICHLOROPHENYL)PROPOXY]-2-METHYLIMIDAZO[1,2-α]PYRIDINEMONOHYDROCHLORIDE]	0.1 µM	0.073 mg/tail	8 µmol/kg	14 µmol/kg	12 µmol/kg		
	34 µM	7 µM	4 µM	Cc1cn2cccc(OCCCc3ccccc3)c2n1 [Compound 2, 2-METHYL-8-[3-PHENYLPROPOXY]IMIDAZO[1,2-α]PYRIDINE MONOHYDROCHLORIDE]	0.06 µM		16 µmol/kg	24 µmol/kg			
				O=C(NCC1CCCCN1)c1cc(OCC(F)(F)F)ccc1OCC(F)(F)F (centres unmarked) [Flecainide]						2.5 µmol/kg	4 ± 2 µmol/kg
